Biological target: T1, DAPK3 (ZIPK) (Homo sapiens, UniProt O43293)
T1 construct: purchased Thermo Fisher Scientific (Life Technologies) SelectScreen
Test: SelectScreen Z'LYTE
Assay type: biochemical
Outline: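 Percent values come from Thermo SelectScreen profiling of NU5455, combining activity and binding assays. CSF1R was run in Z'LYTE format at Km app ATP, and CAMK1 in Adapta format with ATP listed at 10.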

T1 sequence (O43293 whole entry): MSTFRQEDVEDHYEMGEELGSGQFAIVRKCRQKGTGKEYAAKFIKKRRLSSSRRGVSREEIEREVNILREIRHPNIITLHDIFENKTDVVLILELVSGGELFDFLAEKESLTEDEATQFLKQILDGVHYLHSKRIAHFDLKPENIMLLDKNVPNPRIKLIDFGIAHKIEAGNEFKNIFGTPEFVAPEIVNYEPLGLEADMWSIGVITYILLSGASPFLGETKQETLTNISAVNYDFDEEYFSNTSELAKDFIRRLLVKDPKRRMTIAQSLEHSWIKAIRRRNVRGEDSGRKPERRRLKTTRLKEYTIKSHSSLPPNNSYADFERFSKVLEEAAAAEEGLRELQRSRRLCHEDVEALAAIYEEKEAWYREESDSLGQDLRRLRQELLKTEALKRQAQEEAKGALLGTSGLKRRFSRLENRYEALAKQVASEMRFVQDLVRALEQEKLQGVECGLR

Q: With `CN(C(=O)CN1CCOCC1)c1ccc2sc3c(-c4cccc5c(=O)cc(N6CC7CCC(C6)O7)oc45)cccc3c2c1` [NU5455] as the compound, how does the inhibition at 1 µM read?
A: The inhibition at 1 µM was -3.4%.

Reference: article PMC6934184, “Selective DNA-PKcs inhibition extends the therapeutic index of localized radiotherapy and chemotherapy” (The Journal of Clinical Investigation, 2019)
